This is an account of results in patent publication US20070010529A1, “Nitrogenous heterocyclic compounds and medical use thereof” (priority 2003, published 2007).

The structures appear in SMILES notation. pIC50: −log10 of the molar value.

Data set [1] has as its system TNF-α production in THP-1 (human monocyte cell line). The data set is described as follows: Inhibitory activity against TNF-α production using human cell lines (LPS-stimulated THP-1). In kind it is cell-based. The settings on record: 1.5 h, THP-1 cells stimulated by LPS, cultured for 90 minutes, TNF-α by ELISA. The protocol:
(2) Inhibitory Activity Against TNF-α Production Using Human Cell Lines
Using THP-1 which is a human monocyte cell line, the inhibitory effect of the compound of the present invention against TNF-α production stimulated by lipopolysaccharide (LPS) was studied.
Each 50 μL of lipopolysaccharide (LPS; Difco #3120-25-0) prepared to a concentration of 40 ng/mL using RPMI-1640 medium containing 10% fetal calf serum (hereinafter abbreviated as RPMI-1640) and RPMI-1640 containing the compound of the present invention was added to a 96-well plate for cell culture. One hundred μL of the cell suspension of THP-1 (Dainippon Pharmaceutical Co., Ltd, #06-202) prepared to a cell density of 2×10^6 cells/mL using RPMI-1640 was added and cultured for 90 minutes at 37° C. in an incubator (5% CO2, 95% air). After completion of the reaction, the culture medium supernatant was recovered and the amount of produced TNF-α was measured using an ELISA kit (Invitrogen, #850090192).
The inhibitory activity against TNF-α production, which is the effect of the compound of the present invention, was calculated as an inhibition rate (%) by the following equation: Inhibition rate (%)={(AC minus AX)/(AC minus AB)}×100 wherein AB is a measured value without LPS induction; AC is a measured value with LPS induction in the absence of a test compound; and AX is a measured value with LPS induction in the presence of a test compound. Inhibition rate of compounds with each concentration was calculated, and a value indicating 50% inhibition (IC50) was determined from the inhibition curve.

For data set [2], the target named is recombinant human p38 αMAP kinase (Homo sapiens, UniProt Q16539). The data set is described as follows: Study on p38 αMAP kinase inhibitory activity (ATF-2 phosphorylation, Alpha Screen). The data set is classed as biochemical. The settings on record: phosphorylation of biotinylated ATF2 by recombinant human p38 αMAP kinase, 30° C. for 30 minutes. The protocol: (1) Study on p38 αMAP Kinase Inhibitory Activity
recombinant human p38 αMAP kinase, sequence (Q16539 whole entry): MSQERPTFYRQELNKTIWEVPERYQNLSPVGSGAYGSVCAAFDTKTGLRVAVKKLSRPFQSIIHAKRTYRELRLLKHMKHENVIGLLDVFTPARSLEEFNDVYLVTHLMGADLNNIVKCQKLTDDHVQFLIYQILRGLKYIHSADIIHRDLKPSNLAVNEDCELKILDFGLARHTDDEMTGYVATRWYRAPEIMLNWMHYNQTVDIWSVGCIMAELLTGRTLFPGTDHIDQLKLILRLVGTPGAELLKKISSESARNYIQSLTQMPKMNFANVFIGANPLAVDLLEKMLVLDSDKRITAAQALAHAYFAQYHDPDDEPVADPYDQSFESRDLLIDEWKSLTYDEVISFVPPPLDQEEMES
Using activation transcription factor 2 (hereinafter abbreviated as ATF-2) which is a substrate for p38 αMAP kinase, the inhibitory action of the compounds of the present invention was investigated on the phosphorylation by a recombinant human p38 αMAP kinase.
A kinase buffer (25 mM Tris-HCl (pH 7.5), 5 mM β-glycerophosphate, 2 mM dithiothreitol, 0.1 mM Na3VO4, 10 mM MgCl2) containing a recombinant human p38 αMAP kinase was added to a 384-well plate (5 μL)(6.25 μg protein/well) for fluorescence measurement. After addition of a kinase buffer (5 μL) containing the compound of the present invention, the resulting mixture was incubated at room temperature for 20 minutes. A substrate mixture (5 μL) of biotinylated ATF2 of 5 μg/mL (Upstate Biotechnology #14-432), adenosine triphosphate (90 μmol/L)(Sigma #FL-AAS) and anti-phosphorylated ATF2 antibody (20-fold dilution)(Cell Signaling Technology #9221L) prepared separately was added thereto, and enzyme reaction was carried out at 30° C. for 30 minutes. After the reaction, Herpes buffer (5 μL) containing 0.25% BSA and 100 mM EDTA was added to stop the enzyme reaction. The amount of a complex of the phosphorylated ATF2 and anti-phosphorylated ATF2 antibody produced by the reaction was measured using an Alpha Screen™ Rabbit Detection kit (Packard #6760607).
The p38 αMAP kinase inhibitory activity, which is the effect of the compound of the present invention, was calculated as an inhibition rate (%) according to the following equation: Inhibition rate (%)={(AC minus AX)/(AC minus AB)}×100 wherein AB is a measured value without addition of the enzyme; AC is a measured value with addition of the enzyme in the absence of a test compound; and AX is a measured value with addition of the enzyme in the presence of a test compound.
Inhibition rate of compounds with each concentration was calculated, and a value indicating 50% inhibition (IC50) was determined from the inhibition curve.

For data set [3], the system named is TNF-α production induced by lipopolysaccharide (LPS). The data set is described as follows: Rat cytokine-production model (LPS-induced TNF-α production in vivo). The note with it: dose of 10 mg/kg orally; LPS 10 μg/kg intravenously after 2.0 hours; plasma ninety minutes after LPS. How it is done: (3) Rat Cytokine-Production Model
The in vivo effect of the compound of the present invention was studied on TNF-α production induced by lipopolysaccharide (LPS) in rats.
A medium containing the compound of the present invention was orally administered to male […] (Charles River Japan, Inc.), and after 2.0 hours, lipopolysaccharide (LPS, 055:B5, Difco) was intravenously administered at the dose of 10 μg/kg (5 animals/group). Only a medium was orally administered to a control group (5 animals). Ninety minutes after the LPS treatment, heparinized blood collection was performed via the abdominal cava vein under anesthesia with ether, and blood plasma was obtained by centrifugation (12,000 rpm, 3 minutes, 4° C.). The obtained blood plasma sample was stored at −80° C. until it was used. TNF-α in the blood plasma was measured using an ELISA kit from Genzyme/Techne (#10516).
The inhibitory activity of the compound of the present invention against TNF-α production was calculated as an inhibition rate (%) according to the following equation: Inhibition rate (%)={(AC minus AX)/AC}×100 wherein AC is a measured value in case where no test compound was administered under LPS induction, and AX is a measured value in case where a test compound was administered under LPS induction.

The target in another data set is Human CYP2C9 (Homo sapiens, UniProt P11712). Kind of data set: Evaluation of human CYP2C9 inhibitory activity. The data set is classed as in vitro ADME. The protocol:
(5) Evaluation of Human CYP2C9 Inhibitory Activity
The CYP2C9 inhibitory activity of the compound of the present invention was evaluated by enhancing measurement precision and improving measurement sensitivity on the basis of Sato et. al method [Pharmacokinetics, Xenobio. Metabol. and Dispos., 16(2), 115-126 (2001)].

The subject of the next data set is Human CYP3A4. The data set is described as follows: Evaluation of human CYP3A4 induction activity (HepG2 cells, hPXR/CYP3A4 luciferase reporter). The data set is classed as in vitro ADME. The settings on record: concentration of 10 μM, rifampicin (10 μmol/L) set to 100%. The protocol:
(4) Evaluation of Human CYP3A4 Induction Activity
HepG2 cells were cultured in a 5% CO2 incubator at 37° C., using a medium [MEM(+)] prepared by adding 1/100-fold amount of non-essential amino acids for MEM Eagle's medium (100×, ICN, #1681049), Antibiotic-Antimycotic (100×, Gibco, #15240-096), L-glutamine 200 mM (100×, Gibco, #25030-081) and 1/10-fold amount of fetal bovine serum (Sigma, #F9423) to a minimum essential medium Eagle (Mod.) with Earle's salts without L-glutamine. The medium was exchanged once every 2 to 3 days. About one-fifth of the cells which were cultured to a confluent state were passaged once a week. HepG2 cells which were cultured to almost confluent state in a 225 cm^2 culture flask were inoculated to a 24-well plate (Iwaki, #3820-024) to a concentration of 5×10^4 cells/MEM(+) of 500 μL/well. […] Twenty μL/well of the prepared cell lysis solution was transferred to a 96-well white plate (Perkin Elmer, #23300), and using a luminometer (Berthold Japan, Microlumat LB96P), each chemical luminescence was measured for 2 to 14 seconds after addition of luciferase assay reagent II [(LARII), 100 μL/well)] and for 2 to 14 seconds after addition of Stop & Glo reagent, 100 μL/well). […]
The CYP3A4 induction activity was calculated by setting a rise in transcription activity of CYP3A4 to 100% when using rifampicin (10 μmol/L) as a positive control drug.
Background: Reporter assays use an easily measured gene product as a stand-in for the process of interest.

Human CYP2C9, sequence (P11712 whole entry): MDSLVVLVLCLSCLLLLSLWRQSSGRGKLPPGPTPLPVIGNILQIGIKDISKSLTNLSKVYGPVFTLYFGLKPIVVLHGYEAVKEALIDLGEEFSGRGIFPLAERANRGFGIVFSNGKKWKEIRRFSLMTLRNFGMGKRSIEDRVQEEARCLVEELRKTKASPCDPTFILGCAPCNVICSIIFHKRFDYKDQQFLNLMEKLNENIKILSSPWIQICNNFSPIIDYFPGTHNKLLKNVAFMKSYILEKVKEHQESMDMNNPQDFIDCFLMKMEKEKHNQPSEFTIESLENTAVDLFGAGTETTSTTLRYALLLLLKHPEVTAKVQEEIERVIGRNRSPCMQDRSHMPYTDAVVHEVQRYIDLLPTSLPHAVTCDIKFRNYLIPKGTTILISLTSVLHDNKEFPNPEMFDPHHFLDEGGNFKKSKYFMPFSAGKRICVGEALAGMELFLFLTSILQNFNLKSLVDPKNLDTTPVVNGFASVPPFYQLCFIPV

The term pIC50 denotes −log10 of the IC50, conventionally taken in molar units. For `Cc1ccc(-n2nc(C(C)(C)C)cc2NC(=O)Nc2cc(CN3CCN(C(=O)c4ccc(CN5CCN(C)CC5)cc4)CC3)ccc2Cl)cc1` [13(2), N-[3-t-butyl-1-(4-methylphenyl)-1H-pyrazol-5-yl]-N′-{2-chloro-5-[(4-{4-[(4-methylpiperazin-1-yl)methyl]benzoyl}piperazin-1-yl)methyl]phenyl}urea], the negative logarithm of the IC50 (pIC50) is 7.68 in data set [1] and 8.60 in data set [2].
`Cc1ccc(-n2nc(C(C)(C)C)cc2NC(=O)Nc2ccc(CN3CCC(=O)N(c4ccccc4C)C3)cc2)cc1` [Example 4(1), N-[3-t-butyl-1-(4-methylphenyl)-1H-pyrazol-5-yl]-N′-(4-{[3-(2-methylphenyl)-4-oxotetrahydropyrimidin-1(2H)-yl]methyl}phenyl)urea]: the pIC50 in data set [1] was 8.64; in data set [2], 8.54. In data set [3], the “inhibition against in vivo TNF-α production induced by LPS stimulation” value was 72.8%.
For `Cc1ccc(-n2nc(C(C)(C)C)cc2NC(=O)Nc2ccc(CN3CCN(C(=O)c4ccc(CN5CCN(C)CC5)cc4)CC3)cc2C)cc1` [Example 13(1), N-[3-t-butyl-1-(4-methylphenyl)-1H-pyrazol-5-yl]-N′-{2-methyl-4-[(4-{4-[(4-methylpiperazin-1-yl)methyl]benzoyl}piperazin-1-yl)methyl]phenyl}urea], the pIC50 was 7.46 in data set [1], 4.68 on Human CYP2C9 and 8.25 in data set [2]. Moreover, in the data set on Human CYP3A4, the CYP3A4 induction activity result was “did not show CYP3A4 induction activity at all”.
`Cc1ccc(-n2nc(C(C)(C)C)cc2NC(=O)Nc2ccc(OC3CCN(C(=O)c4ccc(CN5CCN(C)CC5)cc4)CC3)cc2C)cc1` [Example 17, N-[3-t-butyl-1-(4-methylphenyl)-1H-pyrazol-5-yl]-N′-{2-methyl-4-[(1-{4-[(4-methylpiperazin-1-yl)methyl]benzoyl}piperidin-4-yl)oxy]phenyl}urea]: the negative-log IC50 (pIC50) in data set [1] was 7.77; in data set [2], 8.42.
